The source of these data is US8466186B2, “Compounds” (Boehringer Ingelheim International GmbH, priority 2010, dated 2013).

Bounds are passed on as bounds.

This experiment concerns the target T1, recombinant human mPGES-1 (Homo sapiens, UniProt O14684).
T1 construct: made in house; host or cells: Rosetta E. coli (membrane/microsome fraction)
T1 sequence (O14684 1-152): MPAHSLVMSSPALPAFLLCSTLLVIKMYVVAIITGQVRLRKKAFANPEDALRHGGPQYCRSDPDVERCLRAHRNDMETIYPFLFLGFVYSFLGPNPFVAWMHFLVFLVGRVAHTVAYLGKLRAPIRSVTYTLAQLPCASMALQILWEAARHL
Briefly: Assay A: mPGES-1 enzyme assay (HTRF detection of PGE2). The experiment is classed as biochemical. The conditions noted are these: biological assay A; microsomes from E. coli expressing recombinant human mPGES-1; read-out: mPGES-1 inhibitory effect IC50. The source says:
The aim of this assay is to determine the affinity of a test compound for the mPGES-1 enzyme.
• 1. Riendeau, D., R. Aspiotis, D. Ethier, Y. Gareau, E. Grimm, J. Guay, S. Guiral, H. Juteau, J. Mancini, N. Methot, J. Rubin, and R. Friesen, Inhibitors of the inducible microsomal prostaglandin E2 synthase (mPGES-1) derived from MK-886. Bioorg Med Chem Lett, 2005. 15(14): p. 3352-3355. • 2. Cote, B., L. Boulet, C. Brideau, D. Claveau, D. Ethier, R. Frenette, M. Gagnon, A. Giroux, J. Guay, S. Guiral, J. Mancini, E. Martins, F. Masse, N. Methot, D. Riendeau, J. Rubin, D. Xu, H. Yu, Y. Ducharme, and R. Friesen, Substituted phenanthrene imidazoles as potent, selective, and orally active mPGES-1 inhibitors. Bioorg Med Chem Lett, 2007. 17(24): p. 6816-6820. Assay A: mPGES-1 Enzyme Assay List of Reagents Used: • Glutathione (Sigma, G-4251) • Freeze culture in Rosetta E coli expression strain. • LB growth media with Ampillicillin (Amp) final concentration in culture 50 μg/mL • Chloroamphenicol stock 34 mg/mL (chloro) final concentration in culture 34 μg/mL • Sterile growth flasks for 500 mL-1 liter cultures • 0.1 M KP, buffer pH 7.4 • 9.25% HCl • PGH2 (0.25 mM) • Fe (II) Cl2 tetrahydrate, 99% (Sigma, 220229) • 384-well plate with compounds • 96-well plate, polypropylene (Thermo fast 96 skirted VWR) • 384-well plate polypropylene PCR plate (Greiner 785201) • Greiner 384-well plate pp (In vitro cat. no. 781280) • Adhesive sealing film for 96-well plates (Sigma-Aldrich) • Aluminium foil (PCR foil, 310-0030-127-471 from Labora) • PBS (GIBCO 14040) • Prostaglandin E2 Assay (Cisbio, cat. no. 62P2APEC) • Biomek FX robot (Beckman Coulter) • Biomek NX robot (Beckman Coulter) • Multidrop; micro or combi (ThermoLabsystems) • Plate reader: Safire2 (Tecan)
Microsomes from Rosetta E. coli bacteria expressing recombinant human mPGES-1 can be derived as described below:
Inoculate 5 mL LB with Amp and Chloro with bacteria from freeze culture. Incubate overnight at 37° C. with 200 rpm. Thereafter, inoculate 500-800 mL LB containing Amp and Chloro with the 5 mL on culture and grow to OD640 of 0.6-0.8. Chill the culture to +4° C. before induction. Induce the culture with IPTG at a final concentration of 400 μM. Express the protein at room temp 18-23° C. with 200 rpm shaking overnight.
The following steps can be performed on the following day: • 1. Spin down the cells in 250 mL centrifuge flasks for 15 min at 7000 rpm • 2. Dissolve the pellet from 250 mL culture in 12.5 mL homogenization buffer • 3. Disintegrate the cells by sonication, 4×10 seconds at 35% amplitude • 4. Add 2.5 mL MgCl2 (100 mM) and DNase 12.5 μL (0.8 mg/mL) and incubate on ice for 30 min • 5. Spin down the bacteria debris and save the supernatant, 7000 rpm for 15 min • 6. Isolate the protein containing membranes in the supernatant by ultracentrifugation 45000×g for 1 hour. • 7. Discard the supernatant and dissolve the pellet in 20 mM KPi buffer and aliquot the enzyme and store aliquots at −80° C.
Before each experiment is performed an aliquot of the enzyme is thawed and it can then be dissolved in 0.1 M KP, pH 7.4 buffer containing 2.5 mM GSH. 50 μL of this enzyme solution is subsequently dispensed in a 384-well plate at room temperature. 0.5 μL of the inhibitor dissolved in DMSO is thereafter added to each well and incubated for 25 minutes at room temperature. Subsequently, 2 μL of PGH2 dissolved in an appropriate solvent is added to each well and after one minute at room temperature, the acidified stop solution containing FeCl2 is added. 4 μL of the total volume is transferred to a separate plate and diluted 750-fold in two separate steps before quantification of PGE2.
In order to quantitate the amount of PGE2 that has been formed, a homogenous time resolved fluorescent (HTRF) detection of PGE2 can be performed by the use of a commercially available kit from CisBio essentially according to the manufacturer's protocol. […]
(Time-resolved FRET reads energy transfer from a long-lived donor to a nearby acceptor.)
As for `Cn1c(Nc2cc(CNC(=O)C(C)(C)C)ccc2C(F)(F)F)nc2cc(Cl)c(N3CCC(C(F)(F)F)CC3)cc21` [Example 104], the IC50 (usually the point on the concentration scale where inhibition reaches its midpoint) is 2.4 nM.

On to `CC(C(=O)NCc1ccc(C(F)(F)F)c(Nc2nc3cc(Cl)c(N4CCC(C(F)(F)F)CC4)cc3n2C)c1)C(F)(F)F` (centres unmarked) [Example 105, N-{4-Trifluoromethyl-3-[5-chloro-1-methyl-6-(4-trifluoromethyl-piperidin-1-yl)-1H-benzimidazol-2-ylamino]-benzyl}-3,3,3-trifluoro-2-methyl-propanamide], for which the IC50 stood at 3.9 nM.

As for `Cn1c(Nc2cc(CNC(=O)C(C)(F)F)ccc2C(F)(F)F)nc2cc(Cl)c(N3CCC(C(F)(F)F)CC3)cc21` [Example 106], the IC50 was determined as 5.7 nM.

Take `Cn1c(Nc2cc(CNC(=O)C3(O)CC3)ccc2C(F)(F)F)nc2cc(Cl)c(N3CCC(C(F)(F)F)CC3)cc21` [Example 107]: the IC50 came out at 13 nM.

`Cn1c(Nc2cc(CNC(=O)C(C)(N)C(F)(F)F)ccc2C(F)(F)F)nc2cc(Cl)c(N3CCC(C(F)(F)F)CC3)cc21` (centres unmarked) [Example 108]: the IC50 was 5.8 nM.

For `Cn1c(Nc2cc(CN[S+]([O-])C(C)(C)C)ccc2C(F)(F)F)nc2cc(Cl)c(N3CCC(C(F)(F)F)CC3)cc21` (centres unmarked) [Example 109, N-(4-Trifluoromethyl-3-(5-chloro-1-methyl-6-(4-trifluoromethyl-piperidin-1-yl)-1H-benzo[d]imidazol-2-ylamino)benzyl)-2-methylpropane-2-sulfinamide], the IC50 worked out at 5.2 nM.

On to `Cn1c(Nc2cc(CNS(=O)(=O)C(C)(C)C)ccc2C(F)(F)F)nc2cc(Cl)c(N3CCC(C(F)(F)F)CC3)cc21` [Example 110, N-(4-Trifluoromethyl-3-(5-chloro-1-methyl-6-(4-trifluoromethyl-piperidin-1-yl)-1H-benzo[d]imidazol-2-ylamino)benzyl)-2-methylpropane-2-sulfonamide], for which the IC50 is 1.5 nM.

`Cn1c(Nc2cc(CNC(=O)C3(C(F)(F)F)CC3)ccc2F)nc2cc(Cl)c(N3CCC(C(F)(F)F)CC3)cc21` [Example 111, N-{4-Fluoro-3-[5-chloro-1-methyl-6-(4-trifluoromethyl-piperidin-1-yl)-1H-benzimidazol-2-ylamino]-benzyl}-1-trifluoromethyl-cyclopropanamide]: the IC50 was 19 nM.

`Cn1c(Nc2cc(CNC(=O)C3(C(F)(F)F)CC3)ccc2F)nc2cc(Cl)c(N3CCC(F)(F)CC3)cc21` [Example 112]: the IC50 is 22 nM.

Turning to `Cn1c(Nc2cc(CNC(=O)C3(C(F)(F)F)CC3)ccc2F)nc2cc(C#N)c(N3CCC(C(F)(F)F)CC3)cc21` [Example 113], the IC50 came out at 11 nM.

As for `Cn1c(Nc2cc(CNC(=O)C3(C(F)(F)F)CC3)c(F)cc2Cl)nc2cc(Cl)c(N3CCC(C(F)(F)F)CC3)cc21` [Example 114, N-{4-Chloro-2-fluoro-5-[5-chloro-1-methyl-6-(4-trifluoromethyl-piperidin-1-yl)-1H-benzimidazol-2-ylamino]-benzyl}-1-trifluoromethyl-cyclopropanamide], the IC50 turned out to be 4.8 nM.

As to `Cn1c(Nc2cc(CNC(=O)C3(C(F)(F)F)CC3)c(F)cc2Cl)nc2cc(Cl)c(N3CCC(C)(C)CC3)cc21` [Example 115], the IC50 amounted to 9.2 nM.

On to `Cn1c(Nc2cc(CNC(=O)C3(C(F)(F)F)CC3)cc(F)c2Cl)nc2cc(Cl)c(N3CCC(C(F)(F)F)CC3)cc21` [Example 116, N-{4-Chloro-5-fluoro-3-[5-chloro-1-methyl-6-(4-trifluoromethyl-piperidin-1-yl)-1H-benzimidazol-2-ylamino]-benzyl}-1-trifluoromethyl-cyclopropanamide], for which the concentration for half-maximal inhibition (IC50) was 5.9 nM.

Regarding `CC(C)(C)C(=O)NCc1ccc(OC(F)(F)F)c(Nc2nc3cc(C#N)c(N4CCCC(C(F)(F)F)C4)cc3[nH]2)c1` (centres unmarked) [Example 117, N-{3-(5-Cyano-6-[3-trifluoromethyl-piperidin-1-yl)-1H-benzo[d]imidazol-2-ylamino]-4-trifluoromethoxy-benzyl}-2,2-dimethyl-propionamide], the 50% inhibitory concentration (IC50) is 120 nM.

As for `CC1(C(=O)NCc2ccc(Cl)c(Nc3nc4ccc(N5CCCC5)cc4[nH]3)c2)CCCCC1` [Example 118], the IC50 came to 53 nM.

Regarding `CC1(C(=O)NCc2ccc(Cl)c(Nc3nc4ccc(N5CCOCC5)cc4[nH]3)c2)CCCCC1` [Example 119], the IC50 is greater than 100 nM.

Regarding `CN1CCN(c2cc3[nH]c(Nc4cc(CNC(=O)C5(C)CCCCC5)ccc4Cl)nc3cc2Cl)CC1` [Example 120], the IC50 stood at 266 nM.

Consider `CC1(C(=O)NCc2ccc(Cl)c(Nc3nc4cc(Cl)c(N5CCOCC5)cc4[nH]3)c2)CCCCC1` [Example 121], for which the IC50 amounted to 60 nM.

For `COC[C@@H]1CCCN1c1cc2[nH]c(Nc3cc(CNC(=O)C4(C)CCCCC4)ccc3Cl)nc2cc1Cl` [Example 122], the IC50 was determined as 7.9 nM.

Consider `Cn1c(Nc2cc(CNC(=O)C3(C)CCCCC3)ccc2Cl)nc2ccc(N3CCCC3)cc21` [Example 123], for which the IC50 was determined as 29 nM.

In the case of `Cn1c(Nc2cc(CNC(=O)C3(C(F)(F)F)CC3)ccc2Cl)nc2cc(Cl)c(N3CCCC(C(F)(F)F)C3)cc21` (centres unmarked) [Example 124], the IC50 was found to be 2.6 nM.

With `CC(C)N1CCN(c2cc3c(cc2Cl)nc(Nc2cc(CNC(=O)C4(C(F)(F)F)CC4)ccc2Cl)n3C)CC1` [Example 125], the IC50 was found to be 32 nM.

For `COC[C@@H]1CCCN1c1cc2c(cc1Cl)nc(Nc1cc(CNC(=O)C3(C(F)(F)F)CC3)ccc1Cl)n2C` [Example 126], the IC50 worked out at 6.7 nM.

For the compound `N#Cc1cc2nc(Nc3cc(CNC(=O)C4(C(F)(F)F)CC4)ccc3Cl)[nH]c2cc1N1CCCC1` [Example 127], the IC50 worked out at 26 nM.

On to `O=C(NCc1ccc(Cl)c(Nc2nc3cc(Cl)c(N4CCOCC4)cc3[nH]2)c1)C1(C(F)(F)F)CC1` [Example 128], for which the IC50 was found to be 172 nM.

Turning to `CN1CCN(c2cc3[nH]c(Nc4cc(CNC(=O)C5(C(F)(F)F)CC5)ccc4Cl)nc3cc2Cl)CC1` [Example 129], the 50% inhibitory concentration (IC50) was determined as 634 nM.

For `N#Cc1cc2nc(Nc3cc(CNC(=O)C4(C(F)(F)F)CC4)ccc3Cl)[nH]c2cc1N1CCCC(C(F)(F)F)C1` (centres unmarked) [Example 130], the IC50 was found to be 15 nM.

With `Cn1c(Nc2cc(CNC(=O)C3(C(F)(F)F)CC3)ccc2Cl)nc2ccc(N3CCCC3)cc21` [Example 132], the IC50 stood at 124 nM.

Turning to `COC[C@@H]1CCCN1c1cc2[nH]c(Nc3cc(CNC(=O)C4(C(F)(F)F)CC4)ccc3Cl)nc2cc1Cl` [Example 133, (S)—N-{4-Chloro-3-[5-chloro-6-(2-methoxymethyl-pyrrolidin-1-yl)-1H-benzo[d]imidazol-2-ylamino]benzyl}-1-trifluoromethyl-cyclopropanecarboxamide], the IC50 stood at 25 nM.
